Tests used:
[1] = system: Human castration resistant prostate cancer cell line 22Rv1; assay: Cell growth inhibition experiment (CellTiter-Glo), 22Rv1; assay type: cell-based; settings: Homo sapiens, 120 h, 22Rv1 cells treated with the compound for 5 days
Description: (§1) Human castration resistant prostate cancer cell line 22Rv1 and LNCaP clone FGC (22Rv1 cell line was from ATCC, CRL-2505, LNCaP clone FGC cell line was purchased from Cell Bank of the Chinese Academy of Sciences) were cultured with RPMI 1640 medium (Gibco, available from Life Technologies Corporation, 22400-089) containing 10% fetal bovine serum (Gibco, available from Life Technologies, 10099-141) and 1% antibiotics (penicillin and streptomycin, available from Life Technologies Corporation, 10378016) in a CO2 cell incubator (37° C., 5% CO2). In the cell growth inhibition experiment, 22Rv1 and LNCaP clone FGC cells in exponential growth phase were seeded on a 96-well plate (purchased from Corning Company, 3599) with a volume of 150 μL/well and a cell density of 1,500 cells/well. After seeded, the plate was placed in a CO2 incubator to incubate overnight to allow the cells to adhere. On the next day, 50 μL of a compound at different concentrations diluted in 3-fold gradient or DMSO were added in a 96-well plate containing the cells. The final concentration of the compound ranges from 0.3 to 10000 nM, and the final concentration of DMSO is 0.05% as control group. The cells were treated by the compound for 5 days. Cell viability was measured using CellTiter-Glo reagent (purchased from Promega, G7572): the cell treated with the compound for 5 days was added with CellTiter-Glo reagent at 40 μL/well, incubated at room temperature for 10 min, transferred to a white 96-well plate (OptiPlate-96, purchased from PerkinElmer, 605299) by 70 μL. Subsequently, the luminescence signal was detected using a multifunctional microplate reader EnVision (purchased from PerkinElmer) at a wavelength of 400-700 nm. The data was analyzed by using GraphPad Prism 5.0 software to obtain IC50.

[2] = biological target: T1, histone acetyltransferase p300 (Homo sapiens, UniProt Q09472); assay: Histone acetyltransferase (p300) activity assay (radioisotope, [3H]-Ac-CoA); assay type: biochemical; settings: p300 0.05 nM; histone peptide 600 nM, [3H]-Ac-CoA 250 nM; 60 min at room temperature; read-out: Inhibition rate IC50
T1 construct: purchased BPS Corporation 50071
T1 sequence (Q09472 1284-1673 limits assumed): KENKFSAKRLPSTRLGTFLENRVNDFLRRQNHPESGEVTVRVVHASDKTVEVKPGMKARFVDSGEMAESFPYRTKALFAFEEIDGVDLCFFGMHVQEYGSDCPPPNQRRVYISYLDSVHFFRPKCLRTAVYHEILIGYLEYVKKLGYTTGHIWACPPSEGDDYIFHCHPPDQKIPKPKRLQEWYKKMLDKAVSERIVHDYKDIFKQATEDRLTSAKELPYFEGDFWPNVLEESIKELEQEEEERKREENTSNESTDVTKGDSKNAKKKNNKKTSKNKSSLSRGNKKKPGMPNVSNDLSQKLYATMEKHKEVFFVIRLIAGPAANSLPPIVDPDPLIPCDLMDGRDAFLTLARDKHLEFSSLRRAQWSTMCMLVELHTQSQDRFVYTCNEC
Description: The reaction was finally terminated with Ac-CoA (Sigma, Cat. No. A2056) without isotope labeling. If the activity of the acetyltransferase p300 was inhibited, the isotope signal cannot be detected on the substrate polypeptide. Therefore, the inhibitory activity of the compound against the acetyltransferase p300 was evaluated.
In the enzyme reaction system, 200 nL of a diluted compound (100% DMSO) was first transferred to a test plate using Echo, where the final concentration of the compound in the enzyme reaction system ranges from 0.25 to 5000 nM. Then 10 μL/well of p300 protein (final concentration of 0.05 nM) was transferred therein, and incubated with the compound for 15 min at room temperature. Then 10 μL/well of a substrate mixture (final concentrations of histone peptide and [^3H]—Ac-CoA were 600 nM and 250 nM, respectively) was added to start the enzyme-catalyzed reaction, and incubated at room temperature for 60 min. Then 10 µL/well of a 250 μM cold Ac-CoA solution was added to stop the reaction. Finally 25 μL/well of the reaction solution was transferred to a 384-well Flashplate (Perkin Elmer, Cat. No. SMP410A001PK), and incubated at room temperature for 1 h. The resultant was washed with double distilled water+0.1% Tween-20 three times. The signal value was read by using Microbeta. The data was analyzed by using GraphPad Prism 5.0 software to obtain IC50.

[3] = system: Human castration resistant prostate cancer cell line LNCaP clone FGC; assay: Cell growth inhibition experiment (CellTiter-Glo), LNCaP clone FGC; assay type: cell-based; settings: Homo sapiens, 120 h, LNCaP clone FGC cells treated with the compound for 5 days
Description: as §1

[4] = system: human mantle cell lymphoma (MCL) cell line MAVER-1; assay: Cell growth inhibition experiment (CellTiter-Glo), MAVER-1; assay type: cell-based; settings: Homo sapiens, Maver1, 120 h, MAVER-1 cells treated with the compound for 5 days
Description: The human mantle cell lymphoma (MCL) cell line MAVER-1 (from ATCC, CRL-3008) was cultured with RPMI 1640 medium (Gibco, available from Life Technologies Corporation, 22400-089) containing […] (Gibco, available from Life Technologies, 10099-141) and 1% antibiotics (penicillin and streptomycin, available from Life Technologies Corporation, 10378016) in a CO2 cell incubator (37° C., 5% CO2). In the cell growth inhibition experiment, MAVER-1 cells in exponential growth phase were seeded on a 96-well plate (purchased from Corning Company, 3599) in a volume of 100 μL/well and a cell density of 1*10E5 cells/well. After seeded, the plate was placed in a CO2 incubator to culture for 1 h. 100 μL of a compound at different concentrations diluted in 3-fold gradient or DMSO were added in a 96-well plate containing the cells. The final concentration of the compound ranges from 0.3 to 10000 nM, and the final concentration of DMSO is 0.05% as control group. The cells were treated with the compound for 5 days. Cell viability was measured using CellTiter-Glo reagent (purchased from Promega, G7572): the cells treated with the compound for 5 days was added with CellTiter-Glo reagent at 20 μL/well, incubated at room temperature for 10 min, transferred to a white 96-well plate (OptiPlate-96, purchased from PerkinElmer, 605299) by 80 μL. Subsequently, the luminescence signal was detected by using a multifunctional microplate reader EnVision (purchased from PerkinElmer) at a wavelength of 400-700 nm. The data was analyzed by using GraphPad Prism 5.0 software to obtain IC50.

SMILES	IC50 [1] [nM]	IC50 [2] [nM]	IC50 [3] [nM]	IC50 [4] [nM]
CC(C)(N)C(=O)Nc1ccc2c(c1)CC[C@@]21OC(=O)N(CC(=O)N2Cc3ccc(F)cc3CC[C@H]2C2CC2)C1=O [SYY-B038-1]	13	1	6	–
Cn1cc(-c2ccc3c(c2)CCC32OC(=O)N(CC(=O)N3Cc4cc(F)ccc4OC[C@H]3C(F)(F)F)C2=O)cn1 (stereo partly drawn) [SYY-B084]	< 100	< 20	–	< 20
Cn1cc(-c2ccc3c(c2)CCC32NC(=O)N(CC(=O)N3Cc4cc(F)ccc4OC[C@H]3C(F)(F)F)C2=O)cn1 (stereo partly drawn) [SYY-B085]	< 50	< 20	–	< 10
CNC(=O)Nc1ccc2c(c1)CCCC21NC(=O)N(CC(=O)N2Cc3cc(F)ccc3OC[C@H]2C2CC2)C1=O (stereo partly drawn) [SYY-B092]	–	< 20	–	< 20
CNC(=O)Nc1ccc2c(c1)OCCC21NC(=O)N(CC(=O)N2Cc3cc(F)ccc3OC[C@H]2C2CC2)C1=O (stereo partly drawn) [SYY-B099]	121	< 20	–	–
NC1(C(=O)Nc2ccc3c(c2)CC[C@]32OC(=O)N(CC(=O)N3Cc4ccc(F)cc4CC[C@H]3C3CC3)C2=O)CC1 [SYY-B035-1]	< 300	< 5	–	–
CNC(=O)Nc1ccc2c(c1)OCCC21NC(=O)N(CC(=O)N2Cc3ccc(F)cc3CC[C@H]2C2CC2)C1=O (stereo partly drawn) [SYY-B074]	–	< 10	–	< 20
CNC(=O)Nc1ccc2c(c1)OCCC21OC(=O)N(CC(=O)N2Cc3ccc(F)cc3CC[C@H]2C2CC2)C1=O (stereo partly drawn) [SYY-B077]	< 20	< 5	–	< 20
Cn1cc(-c2ccc3c(c2)CCCC32NC(=O)N(CC(=O)N3Cc4cc(F)ccc4OC[C@H]3C3CC3)C2=O)cn1 (stereo partly drawn) [SYY-B093]	< 20	< 20	–	< 20
CNC(=O)Cn1cc(-c2ccc3c(c2)CCC32NC(=O)N(CC(=O)N3Cc4ccc(F)cc4CC[C@H]3C3CC3)C2=O)cn1 (stereo partly drawn) [SYY-B045]	< 100	< 5	–	–
CNC(=O)Nc1ccc2c(c1)CC[C@@]21OC(=O)N(CC(=O)N2Cc3ccccc3OC[C@H]2C)C1=O [SYY-B014-2]	–	12	78	–
CNC(=O)Nc1ccc2c(c1)CCCC21OC(=O)N(CC(=O)N2Cc3cc(F)ccc3OC[C@H]2C2CC2)C1=O (stereo partly drawn) [SYY-B086]	< 20	< 10	–	≤ 20
Cn1cc(-c2ccc3c(c2)CCC32OC(=O)N(CC(=O)N3Cc4cc(F)ccc4OC[C@H]3C3CC3)C2=O)cn1 (stereo partly drawn) [ZB-P-29]	< 10	< 10	–	< 10
Cn1cc(-c2ccc3c(c2)CCC32NC(=O)N(CC(=O)N3Cc4cc(F)ccc4OC[C@H]3C3CC3)C2=O)cn1 (stereo partly drawn) [ZB-P-28]	< 10	< 10	–	< 10
CNC(=O)Nc1ccc2c(c1)CCC21NC(=O)N(CC(=O)N2Cc3ccsc3CC[C@H]2C2CC2)C1=O (stereo partly drawn) [SYY-B104]	–	< 20	–	–
Cn1cc(-c2cnc3c(c2)CCC32NC(=O)N(CC(=O)N3Cc4cc(F)ccc4OC[C@H]3C(F)(F)F)C2=O)cn1 (stereo partly drawn) [SYY-B163]	–	< 20	–	–
CNC(=O)Nc1ccc2c(c1)CC[C@]21OC(=O)N(CC(=O)N2Cc3ccc(F)cc3CC[C@@H]2C2CC2)C1=O [SYY-B026-1]	–	22	–	–

SMILES	IC50 [1] [nM]	IC50 [2] [nM]	IC50 [3] [nM]	IC50 [4] [nM]
CNC(=O)Nc1ccc2c(c1)CC[C@@]21OC(=O)N(CC(=O)N2Cc3ccccc3CC[C@@H]2C(F)(F)F)C1=O [SYY-B028-2]	–	55	–	–
NC1(C(=O)Nc2ccc3c(c2)CC[C@@]32OC(=O)N(CC(=O)N3Cc4ccc(F)cc4CC[C@@H]3C3CC3)C2=O)CC1 [SYY-B036-2]	–	1500	–	–
Cn1cc(-c2ccc3c(c2)CCC32NC(=O)N(CC(=O)N3Cc4ccc(F)cc4CC[C@H]3C3CC3)C2=O)cn1 (stereo partly drawn) [SYY-B043]	< 50	< 5	–	–
CNC(=O)Nc1ccc2c(c1)CCC21NC(=O)N(CC(=O)N2Cc3sccc3OC[C@H]2C(F)(F)F)C1=O (stereo partly drawn) [SYY-B142]	–	< 50	–	–
CNC(=O)Nc1ccc2c(c1)CCC21NC(=O)N(CC(=O)N2Cc3cc(F)ccc3OC[C@H]2C(F)(F)F)C1=O (stereo partly drawn) [SYY-B083]	< 100	< 20	–	< 50
CNC(=O)Nc1ccc2c(c1)CCC21NC(=O)N(CC(=O)N2Cc3cc(F)ccc3OC[C@H]2C2CC2)C1=O (stereo partly drawn) [ZB-P-21]	< 100	< 20	–	< 50
Cn1cc(-c2ccc3c(c2)CCCC32OC(=O)N(CC(=O)N3Cc4cc(F)ccc4OC[C@H]3C3CC3)C2=O)cn1 (stereo partly drawn) [SYY-B094]	–	< 100	–	–
NC1(C(=O)Nc2ccc3c(c2)CC[C@@]32OC(=O)N(CC(=O)N3Cc4ccc(F)cc4CC[C@H]3C3CC3)C2=O)CC1 [SYY-B035-2]	< 300	< 5	–	–
CNC(=O)Nc1ccc2c(c1)CC[C@@]21OC(=O)N(CC(=O)N2Cc3cc(F)c(F)cc3CC[C@H]2C2CC2)C1=O [SYY-B090-2]	–	1.58	–	–
CNC(=O)Nc1ccc2c(c1)CCC21NC(=O)N(CC(=O)N2Cc3sccc3OC[C@H]2C2CC2)C1=O (stereo partly drawn) [SYY-B108]	–	< 50	–	–
CNC(=O)Nc1ccc2c(c1)CC[C@]21OC(=O)N(CC(=O)N2Cc3cccnc3CC[C@H]2C2CC2)C1=O [SYY-B081-1]	–	< 200	–	–
CNC(=O)Nc1ccc2c(c1)CC[C@@]21OC(=O)N(CC(=O)N2Cc3sccc3OC[C@H]2C(F)(F)F)C1=O [SYY-B140-2]	–	7	–	–
CNC(=O)Nc1ccc2c(c1)CC[C@@]21OC(=O)N(CC(=O)N2Cc3ccsc3CC[C@H]2C2CC2)C1=O [SYY-B102-2]	–	0.55	–	–
CNC(=O)Nc1ccc2c(c1)CC[C@@]21OC(=O)N(CC(=O)N2Cc3cc(F)ccc3OC[C@H]2C(F)(F)F)C1=O [SYY-B057-2]	10.5	2.4	–	65
CNC(=O)Nc1ccc2c(c1)CCC21NC(=O)N(CC(=O)N2Cc3sccc3CC[C@H]2C2CC2)C1=O (stereo partly drawn) [SYY-B124]	–	< 20	–	–
CNC(=O)Nc1ccc2c(c1)CC[C@@]21OC(=O)N(CC(=O)N2Cc3sccc3CC[C@H]2C2CC2)C1=O [SYY-B126-2]	–	0.5	–	–
